“Also recorded” adds a separate entry of the source.
Assays:
[1] = biological target: T1, eIF4A (Homo sapiens, UniProt P60842); experiment: MANT-ATP fluorescence polarization assay; type: binding; parameters: 6xHis with TEV protease site (N, cleaved yes); made in house; host or cells: E. coli BL21-CodonPlus; settings: compound 200 μM or ADP 1 mM; MANT-ATP 100 nM
Method: Additional biochemical testing was performed on compound 28 to investigate its mechanism of eIF4A inhibition. Initially, kinetics experiments were repeated with compound 28, and the results for compound 28 matched those of compound 1 (FIG. 5D, 4A). Upon addition of compound 28, Km and Vmax of eIF4A decreased with respect to ATP. With respect to RNA, eIF4A Km […] and Vmax remained constant. […] Fluorescence polarization (FP) assays were utilized to confirm this mechanism of inhibition by testing the ability of compound 28 to compete fluorescent substrates off eIF4A. First, an FP assay was performed with MANT-ATP, a fluorescent, non-hydrolysable ATP analog, as the substrate.
MANT-ATP fluorescence polarization assay. Recombinant eIF4A (15 μM) was added to a low-volume black 384 well plate (Greiner). Yeast RNA (0.25 mg/mL) was added along with compound (200 μM) or ADP (1 mM) and the plate was incubated for 20 min. MANT-ATP was added (100 nM) and the plate was incubated for 30 min before fluorescence polarization was read at 355 nm:448 nm (Ex:Em) on a SpectraMax iD5 plate reader (Molecular Devices).
Target sequence in this assay (P60842 whole entry): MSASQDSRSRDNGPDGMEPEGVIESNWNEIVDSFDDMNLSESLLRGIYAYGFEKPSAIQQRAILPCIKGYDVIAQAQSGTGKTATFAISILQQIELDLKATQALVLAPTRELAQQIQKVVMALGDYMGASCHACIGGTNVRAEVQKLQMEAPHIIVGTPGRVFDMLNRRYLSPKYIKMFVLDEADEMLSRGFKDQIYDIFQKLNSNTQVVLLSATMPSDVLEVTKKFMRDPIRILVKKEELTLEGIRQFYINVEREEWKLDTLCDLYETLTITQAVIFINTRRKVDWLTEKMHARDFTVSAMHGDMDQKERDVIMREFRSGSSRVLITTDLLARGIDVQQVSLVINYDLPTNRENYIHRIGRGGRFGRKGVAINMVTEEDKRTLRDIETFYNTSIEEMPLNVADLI

[2] = biological target: T1, eIF4A; experiment: RNA-stimulated malachite green ATPase assay; type: biochemical; parameters: 6xHis with TEV protease site (N, cleaved yes); made in house; host or cells: E. coli BL21-CodonPlus; settings: for potency in the eIF4A ATPase assay (in words): comparison within the series
Method: Human eIF4A protein was produced recombinantly and a greater than 100,000-compound screen for inhibitors was completed using a malachite green ATPase assay (FIG. 11A). […] A stable mixture of yeast RNAs was added in an effort to improve this system and create a more biologically relevant eIF4A assay. eIF4A ATPase activity was accelerated without a statistically significant increase in the background signal in the presence of this RNA (FIG. 11B), and the new conditions gave excellent statistical parameters in a 384-well plate format (FIG. 11C).
ATPase assay. Recombinant WT or mutant eIF4A was added to a clear bottom 384 well plate (Greiner) in ATPase buffer (20 mM Tris pH 7.4, 80 mM KCl, 2.5 mM MgCl2, 1 mM DTT, 1% glycerol). Compounds were added and the plate was incubated at 37° C. for 20 min. ATP/RNA solution was added to afford a 20 μL per well reaction volume with 750 nM eIF4A, 250 μM ATP, and 0.25 mg/mL Yeast RNA (Sigma) for the initial screen and dose responses, and varying concentrations of ATP and RNA for the kinetic assays. The plate was incubated for 4 h at 37° C. for the initial screen and dose responses, and at seven time points (1 hour-7 hours) for kinetic assays. 0.04% v/v (final concentration) Tween-20 was added to a Malachite Green solution, and the Malachite Green (40 μL per well) was added. The solution was incubated for 5 minutes at room temperature and Absorbance at 660 nm was read on a SpectraMax iD5 plate reader (Molecular Devices).
Target sequence in this assay (P60842 whole entry): as above

[3] = test system: BJAB Burkitt lymphoma cells; experiment: CellTiter-Glo Luminescent Cell Viability assay; type: cell-based; settings: 72 h; for effect on BJAB cell viability: top concentration 10 uM
Method: Compounds 1 and compound 28 were evaluated in a CellTiter-Glo (CTG) Luminescence cell viability assay in BJAB Burkitt lymphoma cells that are known to be sensitive to eIF4A inhibition. This assay quantitates the number of living, metabolically active cells by measuring their ATP levels.
Cell viability assay. BJAB lymphoma cells were plated in quadruplicate at 5,000 cells/well in serial dilutions of drug ranging two logs with the top concentration of compounds tested at 10 uM. Viability was measured after 72 h using Cell Titer Glo (Promega G7573) following the manufacturer's protocol. Luminescence was detected on the BioTek HT Synergy plate reader and values were normalized to vehicle-treated (DMSO) wells. Silvestrol was included as a positive control (not shown).

[4] = test system: cap-dependent translation of firefly luciferase; experiment: in vitro translation of bicistronic luciferase reporter in rabbit reticulocyte lysate, firefly luciferase; type: biochemical; settings: Cycloheximide 600 μM, Silvestrol 100 nM
Source text: (§1) A bicistronic luciferase reporter ([…]) (FIG. 7B, top) was programmed into rabbit reticulocyte lysates, cellular extracts capable of performing both cap-dependent and Hepatitis C virus (HCV) internal ribosomal entry site (IRES)-mediated translation. eIF4A is the enzymatic driver of cap-dependent translation and is not involved in translation through HCV IRES. Compounds that inhibit eIF4A should inhibit cap-dependent translation of firefly (FF) luciferase while leaving IRES-mediated translation of Renilla (Ren) luciferase relatively unaffected. The inhibitory activities of cycloheximide, silvestrol, and 28 were assessed in this in vitro translation assay (FIG. 7B, bottom). […] The ability of compound 28 to preferentially target cap-dependent translation in a similar manner as silvestrol provides promising evidence that 28 inhibits eIF4A and not other proteins in the general translational machinery.
(§2) The dual-luciferase reporter plasmid pSP/(CAG)33/FF/HCV/Ren-pA51 was linearized with BamHI and subsequently in vitro transcribed using the Promega mMessage mMachine SP6 transcription kit, according to manufacturer's specifications. RNA was precipitated with LiCI and resuspended in H2O for use in in vitro translation experiments. Rabbit reticulocyte lysate (RRL) (nuclease-treated, Promega) was used to assess inhibitory effects of 28 on translation of the dual-reporter. Briefly, a reaction consisting of 50% RRL, 30 ng/μL reporter RNA, 10 μM Amino Acid Mixture Minus Methionine, 10 μM Amino Acid Mixture Minus Leucine, […], 1 U/μL RNAseOut (Thermo), and drug (final DMSO concentration 1%) were incubated at 30° C. for 90 minutes. The reaction was quenched with 50 μL 1× Passive Lysis Buffer (Promega), 10 μL of the mix was transferred to a 96-well white plate (Cellstar), and the Dual-Reporter Luciferase Assay System (Promega) was used to generate luminescence according to the manufacturer's instructions. Luminescence was detected using a plate reader (BioTek HT Synergy).

[5] = test system: HCV IRES-dependent translation of Renilla luciferase; experiment: in vitro translation of bicistronic luciferase reporter in rabbit reticulocyte lysate, Renilla luciferase; type: biochemical; settings: Cycloheximide 600 μM, Silvestrol 100 nM
Source text: as §1, §2

[6] = biological target: T1, eIF4A; experiment: Cellular Thermal Shift Assay (CETSA) in A549 cells; type: cell-based; parameters: endogenous in cells; host or cells: A549 cells; settings: 90 min, 55° C., silvestrol 100 nM
Method: In CETSA, thermal stability of a protein is assessed by heating cells and then separating insoluble, aggregated, or denatured proteins from soluble proteins through supernatant/pellet fractionation. Levels of the protein of interest (eIF4A) remaining in the soluble fraction are then measured by western blot. The principle of CETSA is similar to differential scanning fluorimetry (DSF), in that thermal stability and solubility of a protein increases upon binding a ligand.
Cellular Thermal Shift Assay (CETSA). A549 cells were seeded into wells in 6-well plates and on the following day were exposed to 28 or silvestrol (100 nM) for 90 min. Cells were harvested, resuspended in 50 μL DMEM, and dispensed into thin-walled PCR tubes. Cells were subjected to 3 min of heat at 55° C. in a thermocycler (miniPCR). After heating, cells were left to cool for 3 min and then snap-frozen on dry ice. Cells were subjected to 3 rapid freeze thaws with 15 seconds of vortexing after each thaw. After the first thaw, 1 μL of a dissolved Pierce protease inhibitor tablet (ThermoFisher—A32963) was added to the cell lysate. Cell lysates were centrifuged at 20,000×g for 20 min. […] All immunoblot images were taken using the Azure 600 imaging system (Azure Biosystems) and analyzed using ImageJ 1.51s (NIH). […]
Target sequence in this assay (P60842 2-406): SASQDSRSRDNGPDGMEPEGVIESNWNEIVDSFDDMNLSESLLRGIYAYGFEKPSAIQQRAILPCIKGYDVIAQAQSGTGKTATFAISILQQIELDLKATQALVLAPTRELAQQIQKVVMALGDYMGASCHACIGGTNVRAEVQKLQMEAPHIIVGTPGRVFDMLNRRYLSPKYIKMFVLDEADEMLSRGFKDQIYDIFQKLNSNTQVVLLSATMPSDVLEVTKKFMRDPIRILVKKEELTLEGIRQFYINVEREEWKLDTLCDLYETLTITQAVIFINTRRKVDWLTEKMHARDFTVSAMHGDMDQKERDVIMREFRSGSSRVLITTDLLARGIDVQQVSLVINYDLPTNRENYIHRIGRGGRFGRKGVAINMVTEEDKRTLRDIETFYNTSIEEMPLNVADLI

| SMILES | potency in the eIF4A ATPase assay (in words) [2] | effect on BJAB cell viability [3] | other results |
| --- | --- | --- | --- |
| Nc1ncnc2c1ncn2[C@@H]1O[C@H](COP(=O)(O)OP(=O)(O)O)[C@@H](O)[C@H]1O [ADP, reference compound] |  |  | competition of MANT-ATP off eIF4A [1]: able to compete MANT-ATP out of its binding pocket |
| CCCCc1ccc(-c2ccc(-c3cc(C(=O)O)c4ccc(Cl)cc4n3)o2)cc1 [Compound 9, 2-(5-(4-butylphenyl)furan-2-yl)-7-chloroquinoline-4-carboxylic acid] | moderate potency; also recorded: performing the best in the ATPase assay of any inhibitor produced |  | IC50 ([2]; 750 nM eIF4A, 250 μM ATP, 0.25 mg/mL Yeast RNA, 4 h at 37° C.): 21.7 ± 3.39 µM; EC50 ([3]; Homo sapiens, CellTiter-Glo, n=4): 4.29 ± 0.23 µM |
| CCCCc1ccc(-c2ccc(-c3cc(C(=O)O)c4cc(N)ccc4n3)o2)cc1 [Compound 24, 6-amino-2-(5-(4-butylphenyl)furan-2-yl)quinoline-4-carboxylic acid] | lose potency in the ATPase assay; also recorded: major losses in potency | do not decrease BJAB cellular viability |  |
| CCCCc1ccc(-c2ccc(-c3cc(C(=O)O)c4cc(NC(C)=O)ccc4n3)o2)cc1 [Compound 25, 6-acetamido-2-(5-(4-butylphenyl)furan-2-yl)quinoline-4-carboxylic acid] | lose potency in the ATPase assay; also recorded: major losses in potency | do not decrease BJAB cellular viability |  |
| CCCCc1ccc(-c2ccc(-c3cc(C(=O)OCC)c4cc([N+](=O)[O-])ccc4n3)o2)cc1 [Compound 29, ethyl 2-(5-(4-butylphenyl)furan-2-yl)-6-nitroquinoline-4-carboxylate] | not potent in the ATPase assay; also recorded: lost all eIF4A potency | did not inhibit cellular viability |  |
| Nc1ccc(-c2ccc(-c3cc(C(=O)O)c4cc([N+](=O)[O-])ccc4n3)o2)cc1 [Compound 46, 2-(5-(4-aminophenyl)furan-2-yl)-6-nitroquinoline-4-carboxylic acid] | low potency; also recorded: lose potency in the ATPase assay | do not inhibit BJAB cell viability |  |
| Nc1cccc(-c2ccc(-c3cc(C(=O)O)c4cc([N+](=O)[O-])ccc4n3)o2)c1 [Compound 47, 2-(5-(3-aminophenyl)furan-2-yl)-6-nitroquinoline-4-carboxylic acid] | low potency; also recorded: lose potency in the ATPase assay | do not inhibit BJAB cell viability |  |
| C[C@@H]1C[C@@H]([C@H](O)CC2CC(=O)NC(=O)C2)C(=O)[C@@H](C)C1 [Cycloheximide, reference compound] |  |  | effect on cap-dependent translation (firefly luciferase) [4]: inhibits both cap-dependent and IRES-mediated translation; effect on HCV IRES-mediated translation (Renilla luciferase) [5]: inhibits both cap-dependent and IRES-mediated translation |
| COC(=O)[C@H]1[C@@H](O)[C@@]2(O)c3c(OC)cc(O[C@@H]4O[C@@H]([C@H](O)CO)CO[C@H]4OC)cc3O[C@@]2(c2ccc(OC)cc2)[C@@H]1c1ccccc1 [silvestrol, reference compound] |  |  | effect on cap-dependent translation (firefly luciferase) [4]: inhibit cap-dependent translation of firefly luciferase; effect on HCV IRES-mediated translation (Renilla luciferase) [5]: only show a modest effect on HCV IRES-dependent translation of Renilla luciferase; thermal stability of eIF4A in cells (CETSA) [6]: increased thermal stability of eIF4A |

— patent US20240360107A1, “AN EIF4A INHIBITOR WITH A NOVEL MECHANISM OF ACTION” (ARIZONA BOARD OF REGENTS ON BEHALF OF THE UNIVERSITY OF …, priority 2021, published 2024)
